Source: ChEMBL document CHEMBL4052642, “4-Methyl-6,7-dihydro-4H-triazolo[4,5-c]pyridine-Based P2X7 Receptor Antagonists: Optimization of Pharmacokinetic Properties Leading to the Identification of a Clinical Candidate” (J Med Chem, 2017)
pIC50: −log10 of the molar value. Values after ≈ are worked out from the molar mass of the structure shown.

Legend:
[1] = Solubility of compound in phosphate buffer at pH 7 after 3 days; format: physicochemical
Cytochrome P450 2C9 [2] = target: T1, Cytochrome P450 2C9 (Homo sapiens, UniProt P11712); assay: Inhibition of CYP2C9 in human liver microsomes using diclofenac as substrate after 15 mins by LC-MS/MS analysis; format: ADME
T1 sequence (P11712 whole entry): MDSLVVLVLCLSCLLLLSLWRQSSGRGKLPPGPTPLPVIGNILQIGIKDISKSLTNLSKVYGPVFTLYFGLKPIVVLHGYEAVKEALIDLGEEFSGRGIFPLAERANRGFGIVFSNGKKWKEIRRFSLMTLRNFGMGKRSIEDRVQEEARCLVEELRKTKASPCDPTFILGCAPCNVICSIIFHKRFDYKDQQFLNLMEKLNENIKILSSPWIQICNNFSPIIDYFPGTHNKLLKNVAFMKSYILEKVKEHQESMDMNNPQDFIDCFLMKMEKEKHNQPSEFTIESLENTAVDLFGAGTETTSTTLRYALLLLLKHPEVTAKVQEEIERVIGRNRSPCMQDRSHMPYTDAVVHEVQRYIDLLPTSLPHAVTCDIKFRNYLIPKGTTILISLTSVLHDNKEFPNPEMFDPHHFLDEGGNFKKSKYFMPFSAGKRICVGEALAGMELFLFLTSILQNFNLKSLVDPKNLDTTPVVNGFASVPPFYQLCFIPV

Cytochrome P450 3A4 = Cytochrome P450 3A4 (Homo sapiens, UniProt P08684); assay: Inhibition of CYP3A4 in human liver microsomes using midazolam as substrate after 15 mins by LC-MS/MS analysis; format: ADME
Cytochrome P450 3A4, sequence (P08684 whole entry): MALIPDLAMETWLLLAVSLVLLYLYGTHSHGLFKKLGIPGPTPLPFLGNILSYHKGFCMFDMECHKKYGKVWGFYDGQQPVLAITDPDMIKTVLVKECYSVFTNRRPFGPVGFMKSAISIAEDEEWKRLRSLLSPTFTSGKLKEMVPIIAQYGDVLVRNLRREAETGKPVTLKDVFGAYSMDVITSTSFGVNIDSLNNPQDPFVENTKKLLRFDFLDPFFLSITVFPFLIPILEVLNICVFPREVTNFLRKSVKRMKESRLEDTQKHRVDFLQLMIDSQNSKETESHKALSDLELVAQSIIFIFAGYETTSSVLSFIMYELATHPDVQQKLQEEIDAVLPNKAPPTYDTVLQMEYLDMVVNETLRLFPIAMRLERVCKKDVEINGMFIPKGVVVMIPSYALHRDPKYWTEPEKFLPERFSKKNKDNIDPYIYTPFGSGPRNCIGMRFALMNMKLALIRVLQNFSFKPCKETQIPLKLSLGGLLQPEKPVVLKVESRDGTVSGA

Cytochrome P450 2C19 [3] = target: T2, Cytochrome P450 2C19 (Homo sapiens, UniProt P33261); assay: Inhibition of CYP2C19 in human liver microsomes using S-mephenytoin as substrate after 15 mins by LC-MS/MS analysis; format: ADME
T2 sequence (P33261 whole entry): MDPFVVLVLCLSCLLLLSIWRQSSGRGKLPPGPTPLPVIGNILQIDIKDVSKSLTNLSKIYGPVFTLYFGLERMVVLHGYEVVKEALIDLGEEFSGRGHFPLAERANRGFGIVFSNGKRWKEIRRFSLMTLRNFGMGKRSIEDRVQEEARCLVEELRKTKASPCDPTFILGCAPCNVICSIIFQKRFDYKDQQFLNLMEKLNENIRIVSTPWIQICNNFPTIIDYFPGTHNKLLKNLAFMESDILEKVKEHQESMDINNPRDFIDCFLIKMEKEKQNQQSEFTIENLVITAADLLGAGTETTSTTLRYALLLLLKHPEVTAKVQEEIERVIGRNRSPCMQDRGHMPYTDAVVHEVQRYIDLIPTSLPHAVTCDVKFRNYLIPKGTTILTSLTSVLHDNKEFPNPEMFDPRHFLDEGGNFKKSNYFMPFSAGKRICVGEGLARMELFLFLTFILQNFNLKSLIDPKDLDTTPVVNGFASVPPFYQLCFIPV

[4] = Solubility of compound in phosphate buffer at pH 2 after 3 days; format: physicochemical
Cytochrome P450 2D6 = Cytochrome P450 2D6 (Homo sapiens, UniProt P10635); assay: Inhibition of CYP2D6 in human liver microsomes using dextromethorphan as substrate after 15 mins by LC-MS/MS analysis; format: ADME
Cytochrome P450 2D6, sequence (P10635 whole entry): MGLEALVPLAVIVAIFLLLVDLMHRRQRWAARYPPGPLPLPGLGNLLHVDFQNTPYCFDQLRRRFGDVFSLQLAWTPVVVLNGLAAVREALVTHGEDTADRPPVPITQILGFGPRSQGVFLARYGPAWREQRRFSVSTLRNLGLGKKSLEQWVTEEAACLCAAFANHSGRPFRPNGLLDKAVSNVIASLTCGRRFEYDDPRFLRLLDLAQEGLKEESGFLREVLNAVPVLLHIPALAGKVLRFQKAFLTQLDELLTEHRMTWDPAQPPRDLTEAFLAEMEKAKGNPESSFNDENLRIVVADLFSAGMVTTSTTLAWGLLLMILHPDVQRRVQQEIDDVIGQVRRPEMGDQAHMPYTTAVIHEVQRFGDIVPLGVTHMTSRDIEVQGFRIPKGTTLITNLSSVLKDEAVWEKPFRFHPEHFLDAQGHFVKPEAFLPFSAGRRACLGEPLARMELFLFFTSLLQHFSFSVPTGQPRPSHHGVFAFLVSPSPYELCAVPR

Cytochrome P450 1A2 = target: T3, Cytochrome P450 1A2 (Homo sapiens, UniProt P05177); assay: Inhibition of CYP1A2 in human liver microsomes using phenacetin as substrate after 15 mins by LC-MS/MS analysis; format: ADME
T3 sequence (P05177 whole entry): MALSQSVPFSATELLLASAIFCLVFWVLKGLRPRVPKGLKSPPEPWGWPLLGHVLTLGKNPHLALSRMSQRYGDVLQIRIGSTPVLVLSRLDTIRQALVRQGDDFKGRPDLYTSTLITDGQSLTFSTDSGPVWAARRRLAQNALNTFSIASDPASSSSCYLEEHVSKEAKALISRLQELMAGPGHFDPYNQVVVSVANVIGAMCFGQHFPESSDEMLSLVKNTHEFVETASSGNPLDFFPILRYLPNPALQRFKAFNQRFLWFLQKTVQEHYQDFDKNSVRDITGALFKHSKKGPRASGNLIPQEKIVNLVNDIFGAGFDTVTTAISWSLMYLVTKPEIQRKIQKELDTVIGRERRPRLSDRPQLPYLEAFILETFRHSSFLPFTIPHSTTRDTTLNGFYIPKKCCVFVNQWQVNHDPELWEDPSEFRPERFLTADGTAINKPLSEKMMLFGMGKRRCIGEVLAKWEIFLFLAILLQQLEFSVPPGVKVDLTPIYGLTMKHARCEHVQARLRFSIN

[5] = Protein binding in rat plasma at 1 uM after 6 hrs by equilibrium dialysis method; format: ADME, cell-free; conditions: read-out: PPB (converted)
Cytochrome P450 2C8 = target: T4, Cytochrome P450 2C8 (Homo sapiens, UniProt P10632); assay: Inhibition of CYP2C8 in human liver microsomes using paclitaxel as substrate after 15 mins by LC-MS/MS analysis; format: ADME
T4 sequence (P10632 whole entry): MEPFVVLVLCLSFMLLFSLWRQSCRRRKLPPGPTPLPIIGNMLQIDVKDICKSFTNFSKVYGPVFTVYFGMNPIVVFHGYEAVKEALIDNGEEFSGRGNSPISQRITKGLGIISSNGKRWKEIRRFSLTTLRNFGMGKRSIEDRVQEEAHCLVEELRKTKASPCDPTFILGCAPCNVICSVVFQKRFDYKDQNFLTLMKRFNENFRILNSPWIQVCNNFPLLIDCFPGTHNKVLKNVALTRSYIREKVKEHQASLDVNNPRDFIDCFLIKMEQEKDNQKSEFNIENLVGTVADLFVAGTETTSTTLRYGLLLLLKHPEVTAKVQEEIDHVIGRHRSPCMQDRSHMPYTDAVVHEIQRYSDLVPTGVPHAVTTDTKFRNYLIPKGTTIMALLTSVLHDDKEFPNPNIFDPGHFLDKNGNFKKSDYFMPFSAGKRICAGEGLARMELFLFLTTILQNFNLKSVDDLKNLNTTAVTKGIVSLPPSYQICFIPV

[6] = Protein binding in mouse plasma at 1 uM after 6 hrs by equilibrium dialysis method; format: ADME, cell-free; conditions: read-out: PPB (converted)
[7] = target: Voltage-gated inwardly rectifying potassium channel KCNH2 (Homo sapiens, UniProt Q12809); assay: Inhibition of [3H]-dofetilide binding to human ERG expressed in HEK293 cells; format: cell-based
Voltage-gated inwardly rectifying potassium channel KCNH2, sequence (Q12809 whole entry): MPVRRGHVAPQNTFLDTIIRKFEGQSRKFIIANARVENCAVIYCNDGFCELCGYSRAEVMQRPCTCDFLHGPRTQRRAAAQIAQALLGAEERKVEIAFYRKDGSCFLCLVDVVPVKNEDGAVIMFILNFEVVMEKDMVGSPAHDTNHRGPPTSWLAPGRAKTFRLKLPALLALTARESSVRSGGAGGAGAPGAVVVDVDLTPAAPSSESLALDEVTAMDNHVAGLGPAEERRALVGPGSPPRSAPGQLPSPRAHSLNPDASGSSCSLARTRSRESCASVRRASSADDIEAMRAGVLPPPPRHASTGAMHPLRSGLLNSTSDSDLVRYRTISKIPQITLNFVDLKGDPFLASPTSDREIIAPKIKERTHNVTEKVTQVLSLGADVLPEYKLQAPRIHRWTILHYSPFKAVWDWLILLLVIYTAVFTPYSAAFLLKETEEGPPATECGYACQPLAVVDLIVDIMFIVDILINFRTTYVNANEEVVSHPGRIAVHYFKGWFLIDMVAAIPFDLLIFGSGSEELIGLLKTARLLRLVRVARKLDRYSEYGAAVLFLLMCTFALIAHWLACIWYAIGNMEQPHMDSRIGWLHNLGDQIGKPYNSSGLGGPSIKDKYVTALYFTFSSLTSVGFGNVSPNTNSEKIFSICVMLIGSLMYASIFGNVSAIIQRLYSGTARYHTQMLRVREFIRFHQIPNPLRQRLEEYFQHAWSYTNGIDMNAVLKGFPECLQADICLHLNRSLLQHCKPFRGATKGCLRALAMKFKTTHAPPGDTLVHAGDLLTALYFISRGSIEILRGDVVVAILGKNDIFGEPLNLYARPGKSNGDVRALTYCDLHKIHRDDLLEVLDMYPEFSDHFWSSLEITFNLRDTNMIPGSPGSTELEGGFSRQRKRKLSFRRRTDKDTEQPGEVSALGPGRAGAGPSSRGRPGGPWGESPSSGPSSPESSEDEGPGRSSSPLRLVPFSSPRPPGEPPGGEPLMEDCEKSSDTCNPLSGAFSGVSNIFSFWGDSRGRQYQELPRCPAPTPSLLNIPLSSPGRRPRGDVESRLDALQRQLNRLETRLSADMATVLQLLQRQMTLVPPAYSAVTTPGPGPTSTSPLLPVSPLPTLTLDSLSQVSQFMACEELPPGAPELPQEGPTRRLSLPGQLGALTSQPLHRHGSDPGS

[8] = Protein binding in human plasma at 1 uM after 6 hrs by equilibrium dialysis method; format: ADME, cell-free; conditions: read-out: PPB (converted)
Rattus norvegicus [9] = assay: Drug level in Sprague-Dawley rat treated with(R)-(2-Chloro-3-(trifluoromethyl)phenyl)(4-methyl-1-(pyrimidin-2-yl)-1,4,6,7-tetrahydro-5H-[1,2,3]triazolo[4,5-c]pyridin-5-yl)methanone at 1 mg/kg, iv or 5 mg/kg, po by LC-MS/MS analysis; format: ADME, organism-based; conditions: in vivo
[10] = Volume of distribution at steady state in Sprague-Dawley rat at 1 mg/kg, iv or 5 mg/kg, po by LC-MS/MS analysis; format: ADME, organism-based; conditions: in vivo, read-out: Vdss
[11] = Clearance in Balb/c mouse at 1 mg/kg, iv or 5 mg/kg, po by LC-MS/MS analysis; format: ADME, organism-based; conditions: in vivo
[12] = Drug excretion in Sprague-Dawley rat at 1 mg/kg, iv or 5 mg/kg, po by LC-MS/MS analysis; format: ADME, organism-based; conditions: in vivo, read-out: Drug excretion
Rattus norvegicus [13] = assay: Toxicity in rat assessed as autoinduction at 50 to 150 mg/kg administered via oral gavage on day 1 and day 4; format: organism-based; conditions: in vivo
Cytochrome P450 2C19 [14] = target: T2, Cytochrome P450 2C19; assay: Drug metabolism assessed as recombinant human CYP2C19-mediated metabolite formation; format: ADME; conditions: recombinant enzyme
[15] = Clearance in cynomolgus monkey at 1 mg/kg, iv or 5 mg/kg, po by LC-MS/MS analysis; format: ADME, organism-based, Macaca fascicularis; conditions: in vivo
[16] = Half life in beagle dog at 0.5 mg/kg, iv by LC-MS/MS analysis; format: ADME, organism-based, Canis lupus familiaris; conditions: in vivo
[17] = Volume of distribution at steady state in beagle dog at 0.5 mg/kg, iv or 2.5 mg/kg, po by LC-MS/MS analysis; format: ADME, organism-based, Canis lupus familiaris; conditions: in vivo, read-out: Vdss
Rattus norvegicus [18] = assay: Toxicity in rat assessed as ataxia at 500 to 1000 mg/kg administered single dose via oral gavage; format: organism-based; conditions: in vivo
[19] = Oral bioavailability in cynomolgus monkey at 5 mg/kg by LC-MS/MS analysis; format: ADME, organism-based, Macaca fascicularis; conditions: in vivo
[20] = Clearance in Sprague-Dawley rat at 1 mg/kg, iv or 5 mg/kg, po by LC-MS/MS analysis; format: ADME, organism-based; conditions: in vivo
[21] = Clearance in beagle dog at 0.5 mg/kg, iv or 2.5 mg/kg, po by LC-MS/MS analysis; format: ADME, organism-based, Canis lupus familiaris; conditions: in vivo
[22] = Volume of distribution at steady state in Balb/c mouse at 1 mg/kg, iv or 5 mg/kg, po by LC-MS/MS analysis; format: ADME, organism-based; conditions: in vivo, read-out: Vdss
Plasma = assay: Plasma concentration in rat at 250 mg/kg administered single dose via oral gavage; format: ADME, organism-based; conditions: in vivo
Rattus norvegicus [23] = assay: Toxicity in rat assessed as decrease in activity at 250 to 1000 mg/kg administered single dose via oral gavage; format: organism-based; conditions: in vivo
[24] = Half life in Balb/c mouse at 1 mg/kg, iv by LC-MS/MS analysis; format: ADME, organism-based; conditions: in vivo
[25] = Ratio of drug level in po dosed Sprague-Dawley rat brain to plasma; format: ADME, organism-based; conditions: read-out: BPR
[26] = Half life in Sprague-Dawley rat at 1 mg/kg, iv by LC-MS/MS analysis; format: ADME, organism-based; conditions: in vivo
Rattus norvegicus [27] = assay: Drug metabolism in Sprague-Dawley rat assessed as formation of (R)-(2-chloro-3-(trifluoromethyl)phenyl)(4-methyl-1,4,6,7-tetrahydro-5H-[1,2,3]triazolo[4,5-c]pyridin-5-yl)methanone at 1 mg/kg, iv or 5 mg/kg, po by LC-MS/MS analysis; format: ADME, organism-based; conditions: in vivo
Cytochrome P450 2C9 [28] = target: T1, Cytochrome P450 2C9; assay: Drug metabolism assessed as recombinant human CYP2C9-mediated metabolite formation; format: ADME; conditions: recombinant enzyme
[29] = Oral bioavailability in beagle dog at 2.5 mg/kg by LC-MS/MS analysis; format: ADME, organism-based, Canis lupus familiaris; conditions: beagle, in vivo
Rattus norvegicus [30] = assay: Ex vivo receptor occupancy at P2X7 in po dosed Sprague-Dawley rat brain after 60 mins by autoradiography; format: functional
Rattus norvegicus [31] = assay: Toxicity in rat assessed as increase in liver weight at 50 to 150 mg/kg administered via oral gavage on day 1 and day 4; format: organism-based; conditions: in vivo
[32] = Half life in cynomolgus monkey at 1 mg/kg, iv by LC-MS/MS analysis; format: ADME, organism-based, Macaca fascicularis; conditions: in vivo
Rattus norvegicus [33] = assay: Toxicity in rat assessed as hepatic lipidosis at 50 to 350 mg/kg administered via oral gavage on day 1 and day 4 measured on day 5 by hematoxylin/eosin staining-based microscopic method; format: organism-based; conditions: in vivo
[34] = Oral bioavailability in Sprague-Dawley rat at 5 mg/kg by LC-MS/MS analysis; format: ADME, organism-based; conditions: in vivo
[35] = Oral bioavailability in Balb/c mouse at 5 mg/kg by LC-MS/MS analysis; format: ADME, organism-based; conditions: in vivo
[36] = Volume of distribution at steady state in cynomolgus monkey at 1 mg/kg, iv or 5 mg/kg, po by LC-MS/MS analysis; format: ADME, organism-based, Macaca fascicularis; conditions: in vivo, read-out: Vdss
Rattus norvegicus [37] = assay: Ex vivo receptor occupancy at P2X7 in po dosed Sprague-Dawley rat brain assessed as plasma concentration required to achieve EC50 after 60 mins by autoradiography; format: functional, organism-based

## C[C@@H]1c2nnn(-c3cc(F)ccn3)c2CCN1C(=O)c1cccc(C(F)(F)F)c1Cl
[1]
  solubility at 72 h: 2.1 µM (≈ 0.924 µg/mL)
Cytochrome P450 2C9 [2]
  pIC50: 5.55
Cytochrome P450 3A4
  pIC50: < 5.00
Cytochrome P450 2C19 [3]
  pIC50: 5.68
[4]
  solubility at 72 h: 4.8 µM (≈ 2.11 µg/mL)
Cytochrome P450 2D6
  pIC50: < 5.00
Cytochrome P450 1A2
  pIC50: < 5.00
[5]
  fraction unbound at 6 h, 1 µM: 0.052
Cytochrome P450 2C8
  pIC50: < 5.00
[6]
  fraction unbound at 6 h, 1 µM: 0.042
[7]
  pIC50: < 5.00
[8]
  fraction unbound at 6 h, 1 µM: 0.024

## C[C@@H]1c2nn[nH]c2CCN1C(=O)c1cccc(C(F)(F)F)c1Cl
Rattus norvegicus [9]
  Drug metabolism: Metabolite_Detected

## C[C@@H]1c2nnn(-c3ncccn3)c2CCN1C(=O)c1cccc(C(F)(F)F)c1Cl
[10]
  Vd: 1.5 L/kg
[1]
  solubility at 72 h: 180 µM (≈ 76.1 µg/mL)
[11]
  clearance: 32 mL/min/kg
[12]
  dose excreted: 0.4%
Rattus norvegicus [13]
  Activity: Toxic
Cytochrome P450 2C19 [14]
  Drug metabolism: Metabolite_Detected
Cytochrome P450 2C9 [2]
  pIC50: < 5.00
[15]
  clearance: 19 mL/min/kg
[16]
  half-life: 660 min
[17]
  Vd: 1.3 L/kg
Rattus norvegicus [18]
  Activity: Toxic
[19]
  bioavailability: 5%
[20]
  clearance: 66 mL/min/kg
[21]
  clearance: 1.4 mL/min/kg
[22]
  Vd: 1.1 L/kg
Cytochrome P450 3A4
  pIC50: < 5.00
Cytochrome P450 2C19 [3]
  pIC50: < 5.00
[4]
  solubility at 72 h: > 400 µM
Plasma
  concentration: 175 µM
Rattus norvegicus [23]
  Activity: Toxic
Cytochrome P450 2D6
  pIC50: < 5.00
[24]
  half-life: 24 min
Cytochrome P450 1A2
  pIC50: < 5.00
[25]
  Kp: 0.8
[26]
  half-life: 30 min
[5]
  fraction unbound at 6 h, 1 µM: 0.076
Rattus norvegicus [27]
  Drug metabolism: Metabolite_Detected
Cytochrome P450 2C9 [28]
  Drug metabolism: Metabolite_Detected
Cytochrome P450 2C8
  pIC50: < 5.00
[29]
  bioavailability: 70%
Rattus norvegicus [30]
  Occ: Dose-dependent effect
Rattus norvegicus [30]; 1 h
  ED50: 0.9 mg/kg
Rattus norvegicus [31]
  Activity: Toxic
[32]
  half-life: 48 min
Rattus norvegicus [33]
  Activity: Toxic
[34]
  bioavailability: 92%
[35]
  bioavailability: 61%
[36]
  Vd: 0.9 L/kg
[6]
  fraction unbound at 6 h, 1 µM: 0.074
[7]
  pIC50: < 5.00
Rattus norvegicus [37]
  Cp: 27 ng/mL
[8]
  fraction unbound at 6 h, 1 µM: 0.084
